# Data: patent US10106538B2, “Inhibitors of protein kinases” (PRINCETON DRUG DISCOVERY INC, priority 2015, dated 2018)
# pIC50: −log10 of the molar value. Like-named read-outs stand apart in the source and are kept apart here.
# How the values were obtained:
# [1] = test system: breast cancer cell line T-47D; experiment: Cell growth assay with breast cancer cell line T-47D; format: cell-based; details: T-47D cells, PrestoBlue Cell Viability reagent, read-out: IC50 inhibition of cell growth
# Method: […] of the complete medium was then gently dispersed over the surface of the cell layer for several times. The cell concentration was adjusted to 1×10^4 cells/mL with the complete medium. A 100 μL aliquot of the cell suspension was added to the well of a 96-well plate, and the plate was incubated overnight at 37° C. under 5% CO2 with saturated humidity. On the next day, the medium in each well was aspirated and replaced with a 100 μL aliquot of pre-warmed complete medium at 37° C. in the presence or absence of the test compounds at various concentrations from 0-100 μM. The test compounds were dissolved in DMSO, and the final DMSO concentration in the cell culture was no more than 1%. The plate was incubated for 72 hours at 37° C. under 5% CO2 with saturated humidity. At end of the cell culture a 10 μL aliquot of PrestoBlue® Cell Viability reagent (ThermoFisher Scientific) was added into the well and the plate was incubated at 37° C. for 30 min. The absorption at 570 and 600 nm were measured with a SpectraMax Microplate reader (Molecular Devices), The absorbance at […] was normalized to that at 600 nm.
# FGR = molecular target: T1, FGR (Homo sapiens, UniProt P09769); experiment: Off-chip Mobility Shift Assay (MSA) kinase inhibition; format: biochemical; details: inhibitor concentration 0.01 μM
# T1 construct: purchased Carna Biosciences
# T1 sequence (P09769 whole entry): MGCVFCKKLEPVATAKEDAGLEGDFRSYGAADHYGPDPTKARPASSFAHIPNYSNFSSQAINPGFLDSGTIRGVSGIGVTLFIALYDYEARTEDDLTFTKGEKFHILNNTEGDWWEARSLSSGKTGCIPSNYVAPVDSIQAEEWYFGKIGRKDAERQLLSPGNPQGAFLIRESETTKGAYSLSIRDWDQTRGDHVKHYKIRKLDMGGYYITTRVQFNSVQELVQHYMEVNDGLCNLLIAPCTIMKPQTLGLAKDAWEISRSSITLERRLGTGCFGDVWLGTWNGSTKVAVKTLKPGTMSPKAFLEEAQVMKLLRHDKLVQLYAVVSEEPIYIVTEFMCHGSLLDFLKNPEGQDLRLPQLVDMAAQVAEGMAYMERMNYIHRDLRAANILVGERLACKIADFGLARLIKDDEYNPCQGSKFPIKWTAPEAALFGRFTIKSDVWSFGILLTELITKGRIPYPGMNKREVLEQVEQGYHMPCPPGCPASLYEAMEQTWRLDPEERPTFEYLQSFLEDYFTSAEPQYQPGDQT
# Method: (§1) Off-chip Mobility Shift Assay (MSA) by Cama Biosciences, Inc (Natick, Mass.) a used for measuring the kinase activity and inhibition. • 1) The 5 μL of x4 compound solution, 5 μL of x4 Substrate/ATP/Metal solution, and 10 μL of x2 kinase solution were prepared with assay buffer (20 mM HEPES, 0.01% Triton X100, 2 mM DTT, pH 7.5) and mixed and incubated in a well of polypropylene 384 well microplate for 1 or 5 hour(s)* at room temperature.
# PDGFRβ = molecular target: T2, PDGFRβ (Homo sapiens, UniProt P09619); experiment: as above; format: biochemical; details: inhibitor concentration 0.01 μM
# T2 construct: purchased Carna Biosciences
# Method: as §1
# JAK2 = molecular target: T3, JAK2 (Homo sapiens, UniProt O60674); experiment: as above; format: biochemical; details: inhibitor concentration 0.01 μM
# T3 construct: purchased Carna Biosciences
# Method: as §1
# BRK = molecular target: T4, BRK (Homo sapiens, UniProt Q13882); experiment: as above; format: biochemical; details: inhibitor concentration 0.01 μM
# T4 construct: purchased Carna Biosciences
# Method: as §1
# KIT = molecular target: T5, KIT (Homo sapiens, UniProt P10721); experiment: as above; format: biochemical; details: inhibitor concentration 0.01 μM
# T5 construct: purchased Carna Biosciences
# T5 sequence (P10721 26-976): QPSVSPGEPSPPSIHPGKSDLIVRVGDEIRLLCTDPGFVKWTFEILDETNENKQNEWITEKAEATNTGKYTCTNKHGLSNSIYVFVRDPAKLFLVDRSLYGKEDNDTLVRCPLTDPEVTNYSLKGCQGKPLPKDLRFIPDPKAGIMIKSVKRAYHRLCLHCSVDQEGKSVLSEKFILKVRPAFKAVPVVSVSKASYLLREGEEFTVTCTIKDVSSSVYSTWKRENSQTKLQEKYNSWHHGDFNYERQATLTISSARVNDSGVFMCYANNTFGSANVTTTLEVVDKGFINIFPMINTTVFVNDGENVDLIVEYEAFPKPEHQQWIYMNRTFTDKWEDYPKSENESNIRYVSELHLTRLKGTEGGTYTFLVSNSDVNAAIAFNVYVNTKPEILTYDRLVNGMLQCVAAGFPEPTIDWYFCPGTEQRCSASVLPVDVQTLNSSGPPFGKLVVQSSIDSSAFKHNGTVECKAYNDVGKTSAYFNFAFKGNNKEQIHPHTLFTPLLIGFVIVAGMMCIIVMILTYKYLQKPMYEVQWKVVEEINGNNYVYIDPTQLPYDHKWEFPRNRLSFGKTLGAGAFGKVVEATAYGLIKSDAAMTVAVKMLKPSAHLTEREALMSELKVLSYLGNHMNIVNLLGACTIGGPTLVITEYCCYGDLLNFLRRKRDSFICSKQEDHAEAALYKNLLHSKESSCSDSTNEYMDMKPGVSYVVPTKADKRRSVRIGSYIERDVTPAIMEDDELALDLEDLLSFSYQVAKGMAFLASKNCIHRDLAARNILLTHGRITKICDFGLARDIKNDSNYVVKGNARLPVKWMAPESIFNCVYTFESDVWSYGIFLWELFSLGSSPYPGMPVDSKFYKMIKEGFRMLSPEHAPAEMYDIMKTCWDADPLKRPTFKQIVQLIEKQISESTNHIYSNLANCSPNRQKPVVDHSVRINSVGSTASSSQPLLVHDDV
# Method: as §1
# SRC = molecular target: T6, SRC (Homo sapiens, UniProt P12931); experiment: as above; format: biochemical; details: inhibitor concentration 0.01 μM
# T6 construct: purchased Carna Biosciences
# Method: as §1
# PDGFRα = molecular target: T7, PDGFRα (Homo sapiens, UniProt P16234); experiment: as above; format: biochemical; details: inhibitor concentration 0.01 μM
# T7 construct: purchased Carna Biosciences
# T7 sequence (P16234 24-1089): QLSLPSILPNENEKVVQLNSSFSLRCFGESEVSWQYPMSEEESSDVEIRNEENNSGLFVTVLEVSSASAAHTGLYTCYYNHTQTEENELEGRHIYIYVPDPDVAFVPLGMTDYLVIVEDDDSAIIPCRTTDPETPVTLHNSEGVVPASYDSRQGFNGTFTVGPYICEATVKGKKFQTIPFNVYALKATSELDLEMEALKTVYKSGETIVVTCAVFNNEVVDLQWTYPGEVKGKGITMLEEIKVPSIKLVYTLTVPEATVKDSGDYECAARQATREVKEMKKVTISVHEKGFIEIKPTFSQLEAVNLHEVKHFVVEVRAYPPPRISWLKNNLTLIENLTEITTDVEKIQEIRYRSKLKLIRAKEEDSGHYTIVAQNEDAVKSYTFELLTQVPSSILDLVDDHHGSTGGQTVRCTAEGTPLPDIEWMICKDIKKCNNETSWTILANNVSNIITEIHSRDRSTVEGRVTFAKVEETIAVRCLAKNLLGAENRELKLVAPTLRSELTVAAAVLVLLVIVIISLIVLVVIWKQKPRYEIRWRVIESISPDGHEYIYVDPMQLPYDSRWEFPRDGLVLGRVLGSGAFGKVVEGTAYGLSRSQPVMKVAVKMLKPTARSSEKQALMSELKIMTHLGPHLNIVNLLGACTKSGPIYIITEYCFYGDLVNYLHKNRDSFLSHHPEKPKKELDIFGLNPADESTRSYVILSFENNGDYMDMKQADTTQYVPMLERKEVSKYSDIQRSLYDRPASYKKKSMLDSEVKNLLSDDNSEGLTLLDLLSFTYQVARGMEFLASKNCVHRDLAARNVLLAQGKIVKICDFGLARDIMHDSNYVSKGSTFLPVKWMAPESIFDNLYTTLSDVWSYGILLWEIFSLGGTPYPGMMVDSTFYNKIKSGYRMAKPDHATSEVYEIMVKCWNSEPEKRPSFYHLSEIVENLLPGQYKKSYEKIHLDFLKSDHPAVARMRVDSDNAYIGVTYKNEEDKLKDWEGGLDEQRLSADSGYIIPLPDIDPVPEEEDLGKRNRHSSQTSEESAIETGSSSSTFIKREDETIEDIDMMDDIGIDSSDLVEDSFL
# Method: as §1
# KIT(T670I) = molecular target: T8, KIT(T670I) (Homo sapiens, UniProt P10721, T670I); experiment: as above; format: biochemical; details: inhibitor concentration 0.01 μM
# T8 construct: purchased Carna Biosciences
# T8 sequence (P10721 26-976 T670I): as the sequence (P10721 26-976) above, with T645I counted along it
# Method: as §1
# JAK1 = molecular target: T9, JAK1 (Homo sapiens, UniProt P23458); experiment: as above; format: biochemical; details: inhibitor concentration 0.01 μM
# T9 construct: purchased Carna Biosciences
# Method: as §1
# KIT(D816V) = molecular target: T10, KIT(D816V) (Homo sapiens, UniProt P10721, D816V); experiment: as above; format: biochemical; details: inhibitor concentration 0.01 μM
# T10 construct: purchased Carna Biosciences
# T10 sequence (P10721 26-976 D816V): as the sequence (P10721 26-976) above, with D791V counted along it
# Method: as §1
# LCK = molecular target: T11, LCK (Homo sapiens, UniProt P06239); experiment: as above; format: biochemical; details: inhibitor concentration 0.01 μM
# T11 construct: purchased Carna Biosciences
# T11 sequence (P06239 whole entry): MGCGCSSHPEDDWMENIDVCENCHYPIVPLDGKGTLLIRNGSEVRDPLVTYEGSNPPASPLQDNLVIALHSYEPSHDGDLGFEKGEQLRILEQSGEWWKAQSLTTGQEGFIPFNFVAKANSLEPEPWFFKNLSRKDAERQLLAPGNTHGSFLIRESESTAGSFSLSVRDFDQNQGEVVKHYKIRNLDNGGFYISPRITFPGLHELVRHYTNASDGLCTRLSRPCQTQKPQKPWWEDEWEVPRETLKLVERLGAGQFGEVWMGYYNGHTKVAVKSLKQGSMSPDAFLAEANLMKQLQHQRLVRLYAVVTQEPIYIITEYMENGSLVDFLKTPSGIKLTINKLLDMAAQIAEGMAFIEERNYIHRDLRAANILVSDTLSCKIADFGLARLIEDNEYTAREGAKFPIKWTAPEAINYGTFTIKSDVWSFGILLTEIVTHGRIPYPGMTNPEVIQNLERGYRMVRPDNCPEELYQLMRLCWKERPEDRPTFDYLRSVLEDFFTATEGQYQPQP
# Method: as §1
# KIT(V560G) = molecular target: T12, KIT(V560G) (Homo sapiens, UniProt P10721, V560G); experiment: as above; format: biochemical; details: inhibitor concentration 0.01 μM
# T12 construct: purchased Carna Biosciences
# T12 sequence (P10721 26-976 V560G): as the sequence (P10721 26-976) above, with V535G counted along it
# Method: as §1
# SRM = molecular target: T13, SRM (Homo sapiens, UniProt Q9H3Y6); experiment: as above; format: biochemical; details: inhibitor concentration 0.01 μM
# T13 construct: purchased Carna Biosciences
# Method: as §1
# BRAF = molecular target: T14, BRAF (Homo sapiens, UniProt P15056); experiment: as above; format: biochemical; details: inhibitor concentration 0.01 μM
# T14 construct: purchased Carna Biosciences
# T14 sequence (P15056 whole entry): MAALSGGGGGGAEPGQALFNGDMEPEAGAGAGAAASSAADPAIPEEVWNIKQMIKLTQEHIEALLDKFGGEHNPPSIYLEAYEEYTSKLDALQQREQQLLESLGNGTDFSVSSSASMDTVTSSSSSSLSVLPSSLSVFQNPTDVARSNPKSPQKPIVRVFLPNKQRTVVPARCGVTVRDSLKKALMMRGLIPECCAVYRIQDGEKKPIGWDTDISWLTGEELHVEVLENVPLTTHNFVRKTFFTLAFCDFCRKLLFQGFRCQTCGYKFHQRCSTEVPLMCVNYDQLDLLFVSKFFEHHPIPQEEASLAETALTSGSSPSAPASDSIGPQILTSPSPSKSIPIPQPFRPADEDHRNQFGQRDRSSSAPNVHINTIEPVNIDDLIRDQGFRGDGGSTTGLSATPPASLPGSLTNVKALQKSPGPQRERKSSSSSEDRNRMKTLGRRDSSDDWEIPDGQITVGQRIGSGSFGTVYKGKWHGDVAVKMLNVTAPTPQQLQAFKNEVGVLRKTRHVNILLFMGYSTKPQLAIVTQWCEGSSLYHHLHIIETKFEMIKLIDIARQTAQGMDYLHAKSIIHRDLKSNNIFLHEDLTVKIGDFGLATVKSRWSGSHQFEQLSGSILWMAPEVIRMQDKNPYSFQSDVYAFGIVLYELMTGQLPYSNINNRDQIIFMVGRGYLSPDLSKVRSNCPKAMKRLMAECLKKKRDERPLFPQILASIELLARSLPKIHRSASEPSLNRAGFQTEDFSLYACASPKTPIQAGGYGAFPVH
# Method: as §1
# BRAF(V600E) = molecular target: T15, BRAF(V600E) (Homo sapiens, UniProt P15056, V600E); experiment: as above; format: biochemical; details: inhibitor concentration 0.01 μM
# T15 construct: purchased Carna Biosciences
# T15 sequence (P15056 whole entry V600E): as the sequence (P15056 whole entry) above, with V600E counted along it
# Method: as §1
# JAK3 = molecular target: T16, JAK3 (Homo sapiens, UniProt P52333); experiment: as above; format: biochemical; details: inhibitor concentration 0.01 μM
# T16 construct: purchased Carna Biosciences
# T16 sequence (P52333 1-1124): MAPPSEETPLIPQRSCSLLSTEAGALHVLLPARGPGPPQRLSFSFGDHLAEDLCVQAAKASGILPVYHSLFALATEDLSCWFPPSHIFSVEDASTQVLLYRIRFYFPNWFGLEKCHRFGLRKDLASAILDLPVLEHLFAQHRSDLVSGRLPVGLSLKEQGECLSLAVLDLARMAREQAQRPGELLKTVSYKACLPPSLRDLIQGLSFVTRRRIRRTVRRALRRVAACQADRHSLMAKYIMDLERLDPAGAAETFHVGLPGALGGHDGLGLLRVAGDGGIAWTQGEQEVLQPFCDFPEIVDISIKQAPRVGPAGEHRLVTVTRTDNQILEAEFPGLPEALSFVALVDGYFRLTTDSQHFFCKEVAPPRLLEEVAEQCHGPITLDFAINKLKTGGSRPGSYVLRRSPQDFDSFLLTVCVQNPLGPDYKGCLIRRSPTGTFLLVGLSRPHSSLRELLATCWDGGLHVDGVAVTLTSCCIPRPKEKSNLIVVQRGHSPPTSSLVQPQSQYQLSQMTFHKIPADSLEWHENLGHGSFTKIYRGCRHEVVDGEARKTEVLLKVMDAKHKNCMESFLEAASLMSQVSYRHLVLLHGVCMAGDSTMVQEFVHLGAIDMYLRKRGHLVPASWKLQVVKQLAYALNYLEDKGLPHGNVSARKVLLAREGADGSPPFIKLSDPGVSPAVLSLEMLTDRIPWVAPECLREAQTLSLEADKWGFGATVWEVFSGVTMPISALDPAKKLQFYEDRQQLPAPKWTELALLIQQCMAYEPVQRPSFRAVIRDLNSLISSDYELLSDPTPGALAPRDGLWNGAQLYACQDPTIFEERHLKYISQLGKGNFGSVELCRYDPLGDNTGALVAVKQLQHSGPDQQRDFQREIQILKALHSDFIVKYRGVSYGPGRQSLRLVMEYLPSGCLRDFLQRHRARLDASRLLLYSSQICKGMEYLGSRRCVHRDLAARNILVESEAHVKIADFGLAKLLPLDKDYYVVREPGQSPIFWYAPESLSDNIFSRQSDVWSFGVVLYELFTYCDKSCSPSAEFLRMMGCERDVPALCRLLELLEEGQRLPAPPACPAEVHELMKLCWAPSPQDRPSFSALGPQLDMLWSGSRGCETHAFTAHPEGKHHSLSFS
# Method: as §1
# RAF1 = molecular target: T17, RAF1 (Homo sapiens, UniProt P04049); experiment: as above; format: biochemical; details: inhibitor concentration 0.01 μM
# T17 construct: purchased Carna Biosciences
# T17 sequence (P04049 whole entry): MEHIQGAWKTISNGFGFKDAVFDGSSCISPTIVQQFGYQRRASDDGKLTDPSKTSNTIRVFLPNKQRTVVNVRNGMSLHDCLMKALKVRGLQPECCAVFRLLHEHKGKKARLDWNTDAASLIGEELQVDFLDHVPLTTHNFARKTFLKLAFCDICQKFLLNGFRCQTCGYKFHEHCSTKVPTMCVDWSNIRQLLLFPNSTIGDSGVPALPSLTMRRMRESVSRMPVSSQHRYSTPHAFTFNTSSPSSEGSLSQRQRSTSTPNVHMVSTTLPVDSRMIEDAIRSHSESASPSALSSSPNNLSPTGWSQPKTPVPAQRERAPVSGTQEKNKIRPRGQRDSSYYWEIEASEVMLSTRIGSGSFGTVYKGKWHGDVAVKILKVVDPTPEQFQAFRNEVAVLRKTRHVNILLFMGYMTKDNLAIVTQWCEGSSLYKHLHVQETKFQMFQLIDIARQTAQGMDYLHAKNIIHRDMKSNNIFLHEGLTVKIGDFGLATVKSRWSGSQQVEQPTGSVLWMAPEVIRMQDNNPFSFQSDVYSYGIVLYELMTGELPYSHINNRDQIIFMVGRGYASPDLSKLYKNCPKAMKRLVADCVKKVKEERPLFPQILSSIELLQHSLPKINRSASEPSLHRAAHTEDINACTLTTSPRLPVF
# Method: as §1
# PDGFRα(D842V) = molecular target: T18, PDGFRα(D842V) (Homo sapiens, UniProt P16234, D842V); experiment: as above; format: biochemical; details: inhibitor concentration 0.01 μM
# T18 construct: purchased Carna Biosciences
# T18 sequence (P16234 24-1089 D842V): as the sequence (P16234 24-1089) above, with D819V counted along it
# Method: (§2) Off-chip Mobility Shift Assay (MSA) by Cama Biosciences, Inc (Natick, Mass.) a used for measuring the kinase activity and inhibition. • 1) The 5 μL of x4 compound solution, 5 μL of x4 Substrate/ATP/Metal solution, and 10 μL of x2 kinase solution were prepared with assay buffer (20 mM HEPES, 0.01% Triton X100, 2 mM DTT, pH 7.5) and mixed and incubated in a well of polypropylene 384 well microplate for 1 or 5 hour(s)* at room temperature. (*; depending on kinase) • 2) 70 μL of Termination Buffer (QuickScout Screening Assist A; Cama Biosciences) was added to the welt • 3) The reaction mixture was applied to LabChip system (Perkin Elmer), and the product and substrate peptide peaks were separated and quantitated. • 4) The kinase reaction was evaluated by the product ratio calculated from peak heights of product (P) and substrate (S) peptides (P/(P+S)). • 5) The reaction conditions were followed according to assay protocols of Ca n Biosciences, Inc (BMA 3F, 1-5-5 Minatojima-Minamimachi, Chuo-ku, Kobe 650-0047, Japan; www.carnabio.com). • 6 Data analysis: The readout value of reaction control (complete reaction mixture) was set as a 0% inhibition, and the readout value of background (Enzyme (−)) was set as a 100% inhibition, then the percent inhibition of each test solution was calculated, […]
# PDGFRα(V561D) = molecular target: T19, PDGFRα(V561D) (Homo sapiens, UniProt P16234, V561D); experiment: as above; format: biochemical; details: inhibitor concentration 0.01 μM
# T19 construct: purchased Carna Biosciences
# T19 sequence (P16234 24-1089 V561D): as the sequence (P16234 24-1089) above, with V538D counted along it
# Method: as §2
# PDGFRα(T674I) = molecular target: T20, PDGFRα(T674I) (Homo sapiens, UniProt P16234, T674I); experiment: as above; format: biochemical; details: inhibitor concentration 0.01 μM
# T20 construct: purchased Carna Biosciences
# T20 sequence (P16234 24-1089 T674I): as the sequence (P16234 24-1089) above, with T651I counted along it
# Method: as §2
compound,measurement,setting,value
C/C=C/S(=O)(=O)Nc1ccc(F)c(C(=O)c2c[nH]c3ncc(-c4ccc(Cl)cc4)cc23)c1F [200-93a],pIC50,[1]; 72 hours,< 4.70
same,inhibition at 0.01 µM,FGR,> 30%
same,inhibition at 0.01 µM,PDGFRβ,> 20%
same,inhibition at 0.01 µM,JAK2,> 30%
same,inhibition at 0.01 µM,BRK,> 30%
same,inhibition at 0.01 µM,KIT,> 30%
same,inhibition at 0.01 µM,SRC,> 30%
same,inhibition at 0.01 µM,PDGFRα,> 20%
same,inhibition at 0.01 µM,KIT(T670I),> 30%
same,inhibition at 0.01 µM,JAK1,> 30%
same,inhibition at 0.01 µM,KIT(D816V),> 30%
same,inhibition at 0.01 µM,LCK,> 30%
same,inhibition at 0.01 µM,KIT(V560G),> 30%
same,inhibition at 0.01 µM,SRM,> 30%
same,inhibition at 0.01 µM,BRAF,> 30%
same,inhibition at 0.01 µM,BRAF(V600E),> 30%
same,inhibition at 0.01 µM,JAK3,> 30%
same,inhibition at 0.01 µM,RAF1,> 30%
same,inhibition at 0.01 µM,PDGFRα(D842V),> 30%
same,inhibition at 0.01 µM,PDGFRα(V561D),> 30%
same,inhibition at 0.01 µM,PDGFRα(T674I),> 30%
"COCCS(=O)(=O)Nc1ccc(F)c(C(=O)c2c[nH]c3ncc(-c4ccc(Cl)cc4)cc23)c1F [200-139, N-[3-[5-(4-chlorophenyl)pyrrolo[2,3-b]pyridine-3-carbonyl]-2,4-difluorophenyl]-2-methoxyethanesulfonamide]",pIC50,"[1]; Homo sapiens, T47D, 72 h",> 4.70
same,inhibition at 0.01 µM,FGR,< 20%
same,inhibition at 0.01 µM,PDGFRβ,< 20%
same,inhibition at 0.01 µM,JAK2,< 20%
same,inhibition at 0.01 µM,BRK,> 20%
same,inhibition at 0.01 µM,KIT,< 20%
same,inhibition at 0.01 µM,SRC,< 20%
same,inhibition at 0.01 µM,PDGFRα,> 20%
same,inhibition at 0.01 µM,KIT(T670I),< 20%
same,inhibition at 0.01 µM,JAK1,< 20%
same,inhibition at 0.01 µM,KIT(D816V),< 20%
same,inhibition at 0.01 µM,LCK,> 20%
same,inhibition at 0.01 µM,KIT(V560G),< 20%
same,inhibition at 0.01 µM,SRM,> 20%
same,inhibition at 0.01 µM,BRAF,< 20%
same,inhibition at 0.01 µM,BRAF(V600E),< 20%
same,inhibition at 0.01 µM,JAK3,< 20%
same,inhibition at 0.01 µM,RAF1,> 20%
same,inhibition at 0.01 µM,PDGFRα(D842V),< 20%
same,inhibition at 0.01 µM,PDGFRα(V561D),< 20%
same,inhibition at 0.01 µM,PDGFRα(T674I),< 20%
"O=C(c1c(F)ccc(NS(=O)(=O)CCO)c1F)c1c[nH]c2ncc(-c3ccc(Cl)cc3)cc12 [200-149, N-[3-[5-(4-chlorophenyl)pyrrolo[2,3-b]pyridine-3-carbonyl]-2,4-difluorophenyl]-2-hydroxyethanesulfonamide]",pIC50,"[1]; Homo sapiens, T47D, 72 hours",> 4.70
"COCCCS(=O)(=O)Nc1ccc(F)c(C(=O)c2c[nH]c3ncc(-c4ccc(Cl)cc4)cc23)c1F [200-123, N-[3-[5-(4-chlorophenyl)pyrrolo[2,3-b]pyridine-3-carbonyl]-2,4-difluoro-phenyl]-3-methoxypropane-1-sulfonamide]",pIC50,"[1]; Homo sapiens, T47D, 72 h",> 4.70
same,inhibition at 0.01 µM,FGR,< 20%
same,inhibition at 0.01 µM,PDGFRβ,< 20%
same,inhibition at 0.01 µM,JAK2,< 20%
same,inhibition at 0.01 µM,BRK,> 20%
same,inhibition at 0.01 µM,KIT,< 20%
same,inhibition at 0.01 µM,SRC,< 20%
same,inhibition at 0.01 µM,PDGFRα,< 20%
same,inhibition at 0.01 µM,KIT(T670I),< 20%
same,inhibition at 0.01 µM,JAK1,< 20%
same,inhibition at 0.01 µM,KIT(D816V),< 20%
same,inhibition at 0.01 µM,LCK,> 20%
same,inhibition at 0.01 µM,KIT(V560G),< 20%
same,inhibition at 0.01 µM,SRM,> 20%
same,inhibition at 0.01 µM,BRAF,< 20%
same,inhibition at 0.01 µM,BRAF(V600E),> 20%
same,inhibition at 0.01 µM,JAK3,< 20%
same,inhibition at 0.01 µM,RAF1,> 20%
same,inhibition at 0.01 µM,PDGFRα(D842V),< 20%
same,inhibition at 0.01 µM,PDGFRα(V561D),< 20%
same,inhibition at 0.01 µM,PDGFRα(T674I),< 20%
